The data set in a line: Storage of the aqueous ophthalmic composition in polyethylene bottles: concentration of active ingredient over time. Conditions: for concentration upon storage at low temperature / concentration upon storage at room temperature: polyethylene bottles; for concentration upon storage at low temperature: low (2-8° C.) temperature. The data set is classed as physicochemical. The protocol: The ophthalmic products XALATAN® (comprising approximately 50 μg/ml latanoprost) and XALCOM® (comprising approximately 50 μg/ml latanoprost and 5 mg/ml timolol) are packaged in bottles. The bottle is typically made of clear low-density polyethylene with a clear low-density polyethylene dropper tip, a high-density polyethylene screw cap, and a clear low-density polyethylene overcap. Unopened bottles are stored at 2-8° C.
While storage at recommended temperature has proven to be an effective way of maintaining product stability of the ophthalmic products, it would be desirable to store such ophthalmic products at room temperature for prolonged periods without adversely affecting the concentration(s) of the active ingredient(s).
Following extensive research, a better understanding of the above-mentioned phenomenon has now been achieved. When the polyethylene packages are stored, moisture from the composition is lost to the atmosphere. Moreover, prostaglandin itself is absorbed into or adsorbed to the bottle resin and thus removed from the composition. […] Thus, the concentration of timolol increases over time and may have undesired systemic effects upon administration to the eye. This net effect of this phenomenon is more pronounced at room temperature than at low temperature.

In the case of `CC(C)OC(=O)CCC/C=C\C[C@@H]1[C@@H](CC[C@@H](O)CCc2ccccc2)[C@H](O)C[C@@H]1O` [latanoprost], the “concentration upon storage at low temperature” value is given as “maintained at a nearly constant level” and the “concentration upon storage at room temperature” value is on record as “maintained at a nearly constant level”.

Regarding `CC(C)(C)NC[C@H](O)COc1nsnc1N1CCOCC1` [timolol, (S)-1-[(1,1-dimethylethyl)amino]-3-[ [4-(4-morpholinyl)-1,2,5-thiadiazol-3-yl]oxy]-2-propanol], the “concentration upon storage at low temperature” value was “maintained at a nearly constant level” and the “concentration upon storage at room temperature” value is reported as “increases gradually over time”. The “loss to the atmosphere or absorption/adsorption by the package material” value (polyethylene packages on storage) is given as “neither lost to the atmosphere nor absorbed/adsorbed by the package material to any large extent”.

(Values after patent publication US20050048122A1, “Method for stabalizing timolol concentration” (Pharmacia & Upjohn Company, priority 2003, published 2005).)
